{"source": "patent US20190343122A1", "about": "“IMPROVED INSECT CONTROL STRATEGIES UTILIZING PHEROMONES AND RNAI” (Provivi, Inc., priority 2016, published 2019)", "origin": "cited, not measured here", "key": {"aphids": {"tested_on": "aphids", "conditions": "in vivo"}, "E. heros": {"tested_on": "E. heros", "conditions": "female E. heros"}, "target genes of pests": {"tested_on": "target genes of pests", "conditions": "Noctuidae Spodoptera exigua"}}}
{"compound": "CCCCCCC=O", "note": "[Heptanal]", "values": [{"measurement": "attractiveness of an oviposition substrate", "setting": "mated H. armigera", "value": "significantly increase the attractiveness"}]}
{"compound": "CNC(=O)Oc1cccc2ccccc12", "note": "[Sevin, carbaryl]", "values": [{"measurement": "effectiveness against aphids", "setting": "aphids", "value": "not effective against many aphids"}]}
{"compound": "CCCC(C)CCCC(C)CCCC(C)C(=O)OC", "note": "(centres unmarked) [TMTD, methyl 2,6,10-trimethyltridecanoate]", "values": [{"measurement": "attraction to lures", "setting": "E. heros", "value": "attracted"}]}
{"compound": "O=Cc1ccccc1", "note": "[benzaldehyde]", "values": [{"measurement": "attractiveness of an oviposition substrate", "setting": "mated H. armigera", "value": "significantly increase the attractiveness"}]}
{"compound": "PGCP", "values": [{"measurement": "Larval mortality", "setting": "target genes of pests", "value": "Larval mortality increased"}]}
